Consider 28 compounds from ChEMBL document CHEMBL1201862, “PubChem BioAssay data set” (2004).

Experiment [1] is described as follows: Luminescence Cell-Based Dose Response HTS to Identify Inhibitors of 5'UTR Stem-Loop Driven Prion Protein mRNA Translation in H4 Neuroglioblastoma Cells. [Related pubchem assays: 1827 (Project Summary), 1813 (Primary HTS)]. The experiment is classed as functional.
Experiment [2] can be described thus: luciferase reporter signal suppression in cells – H4 neuroglioma cells, luminescence, dose response (AID 1990). The experiment is classed as functional, cell-based.
Experiment [3] is described as follows: alpha-synuclein stem-loop luciferase translation blockers – H4 neuroglioma cells, luminescence, confirmation (AID 1988). The experiment is classed as functional, cell-based.
Experiment [4] deals with BJ. The experiment in a line: BJ-TERT fibroblast viability loss – cell-based, RAS-independent, luminescence, dose response (AID 1933). The experiment is classed as functional. Particulars: Homo sapiens.
In experiment [5] the test system is BJ. The experiment in a line: cells. The experiment is classed as functional, cell-based. Particulars: Homo sapiens.
For experiment [6], the system named is BJ. Kind of experiment: BJ-TERT-LT-ST fibroblast viability loss – cell-based, RAS-independent, luminescence, dose response (AID 1935).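 Further: BJ fibroblasts immortalized with TERT plus LT and ST oncogenes.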 The experiment is classed as functional. Particulars: Homo sapiens.
Experiment [7] in a line: DRD fibroblast viability loss – cell-based, non-viral oncogenic, luminescence, dose response (AID 1934). The experiment is classed as functional. To be noted: Homo sapiens.
The target of experiment [8] is T1, Polyadenylate-binding protein 1 (Homo sapiens, UniProt P11940). The experiment in a line: MLLE binding blockers, Cy5 peptide tracer – biochemical, fluorescence polarization, Cy5-PAM2 peptide, secondary, miRNA deadenylation inhibitor project, dose response (AID 602260). To be noted: read-out: IC50_Mean. The experiment is classed as functional.
T1 sequence (P11940 whole entry, the tested form may be a part): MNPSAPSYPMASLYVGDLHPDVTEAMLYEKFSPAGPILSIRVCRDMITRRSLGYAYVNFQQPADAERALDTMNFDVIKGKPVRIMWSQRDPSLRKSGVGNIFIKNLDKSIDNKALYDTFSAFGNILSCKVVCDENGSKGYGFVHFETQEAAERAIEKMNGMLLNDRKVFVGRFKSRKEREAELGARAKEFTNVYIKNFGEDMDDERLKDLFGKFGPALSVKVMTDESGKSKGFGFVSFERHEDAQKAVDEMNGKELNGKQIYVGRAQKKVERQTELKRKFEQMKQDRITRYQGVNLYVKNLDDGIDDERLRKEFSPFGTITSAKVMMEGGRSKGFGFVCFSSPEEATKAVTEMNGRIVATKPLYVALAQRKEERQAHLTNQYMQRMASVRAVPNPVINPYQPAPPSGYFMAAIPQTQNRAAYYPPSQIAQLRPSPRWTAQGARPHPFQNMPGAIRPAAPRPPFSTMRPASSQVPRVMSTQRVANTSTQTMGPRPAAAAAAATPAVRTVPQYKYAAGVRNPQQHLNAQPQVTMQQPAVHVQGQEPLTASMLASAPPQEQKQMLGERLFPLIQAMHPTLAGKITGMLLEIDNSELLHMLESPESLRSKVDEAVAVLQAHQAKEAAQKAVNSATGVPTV
Experiment [9] has as its target T1, Polyadenylate-binding protein 1. Kind of experiment: MLLE domain peptide-binding blockers, IC50 – biochemical, fluorescence polarization, FITC-PAM2 peptide, dose response (AID 602259). To be noted: read-out: IC50_Mean. The experiment is classed as functional.
The nature of experiment [10]: Luminescence Cell-Based Dose Retest to Confirm Inhibitors of Cancer Stem Cells. [Related pubchem assays (depositor defined):AID2717, AID2721]. The experiment is classed as functional. To be noted: Homo sapiens.
Experiment [11] addresses Luciferin 4-monooxygenase (Photinus pyralis, UniProt P08659). Kind of experiment: inhibition of purified Photinus pyralis luciferase – biochemical, luminescence, dose response (AID 1891).
The nature of experiment [12]: Luminescence Cell-Based Dose Confirmation HTS to Identify Inhibitors of Platelet Dense Granule Release. [Related pubchem assays: 1663 (Primary HTS), 1678 (Summary of Project)]. The experiment is classed as functional.
Experiment [13] deals with T2, Corticotropin-releasing factor receptor 2/Corticotropin-releasing factor-binding protein (Homo sapiens, UniProt P24387+Q13324).
T2 sequence (Q13324 whole entry): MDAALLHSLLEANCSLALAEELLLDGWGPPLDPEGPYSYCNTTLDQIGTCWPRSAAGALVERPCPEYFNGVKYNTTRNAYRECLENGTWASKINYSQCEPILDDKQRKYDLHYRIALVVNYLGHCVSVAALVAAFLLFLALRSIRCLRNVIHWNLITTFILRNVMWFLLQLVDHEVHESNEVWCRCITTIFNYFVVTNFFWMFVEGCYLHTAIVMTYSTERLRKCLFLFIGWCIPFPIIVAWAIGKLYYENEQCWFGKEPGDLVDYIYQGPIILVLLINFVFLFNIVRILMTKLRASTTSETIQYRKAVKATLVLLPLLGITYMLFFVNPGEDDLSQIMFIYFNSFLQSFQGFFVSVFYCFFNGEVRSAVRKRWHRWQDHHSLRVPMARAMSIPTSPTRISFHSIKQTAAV
T2 sequence (P24387 whole entry): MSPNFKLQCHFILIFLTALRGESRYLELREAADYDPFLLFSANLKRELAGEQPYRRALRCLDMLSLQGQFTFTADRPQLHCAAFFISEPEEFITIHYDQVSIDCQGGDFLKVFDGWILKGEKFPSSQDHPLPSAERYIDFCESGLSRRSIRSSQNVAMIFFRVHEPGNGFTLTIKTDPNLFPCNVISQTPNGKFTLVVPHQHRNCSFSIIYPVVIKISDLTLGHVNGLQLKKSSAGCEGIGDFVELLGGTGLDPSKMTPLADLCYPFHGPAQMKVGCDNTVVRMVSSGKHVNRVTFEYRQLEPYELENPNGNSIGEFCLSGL
Kind of experiment: activators of CRF receptor 2 with binding protein – uHTS hits, confirmation (AID 602473). The experiment is classed as functional. To be noted: read-out: EC50_Mean.

A short description of experiment [14]: Luminescence Cell-Based Dose Confirmation HTS to Identify Activators of 5'UTR Stem-Loop Driven Alpha-Synuclein mRNA Translation in H4 Neuroglioblastoma Cells. [Related pubchem assays: 1829 (Project Summary), 1814 (Primary HTS)]. The experiment is classed as functional.
Experiment [15] can be described thus: Luminescence Cell-Based Dose Response HTS to Identify Activators of Luciferase Translation or Activity in H4 […] Cells. [Related pubchem assays: 1829 (Project Summary), 1814 (Primary HTS)]. The experiment is classed as functional.
In experiment [16] the test system is H4. Kind of experiment: Luminescence Cell-Based Dose Response HTS to Identify Activators of 5'UTR Stem-Loop Driven Prion Protein mRNA Translation in H4 Neuroglioblastoma Cells. [Related pubchem assays: 1829 (Project Summary), 1814 (Primary HTS)]. Particulars: Homo sapiens. The experiment is classed as functional.
Experiment [17] is described as follows: Trypanosoma cruzi growth suppression in host cells – NIH3T3 host cells, beta-gal luminescence, confirmation (AID 2044).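 Further: intracellular parasites grown in NIH/3T3 mouse fibroblasts as host cells; luminescent beta-galactosidase reporter signal from transgenic T. cruzi replicating inside host cells; inhibitors lower the luminescence signal.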 The experiment is classed as functional, cell-based.
A short description of experiment [18]: NIH3T3 cell viability loss – ATP luminescence, mouse fibroblasts, counter-screen, dose response (AID 2010).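 Further: cells exposed to compound for about 90 hours before reading.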 The experiment is classed as functional, cell-based.
Experiment [19] deals with H9c2. The experiment in a line: cells. Particulars: Rattus norvegicus, H9c2, Myocardium. The experiment is classed as functional, cell-based.
Experiment [20] has as its system Streptococcus sp. 'group A'. The experiment in a line: Streptococcus pyogenes SK(-)GAS viability under kanamycin – luminescence, BacTiterGlo, confirmation, counter-screen for streptokinase expression inhibitor project, dose response (AID 1900). Particulars: Streptococcus sp. 'group A'. The experiment is classed as functional, organism-based.
Experiment [21] concerns the target T3, Streptokinase A (Streptococcus pyogenes serotype M1, UniProt P10520).
T3 sequence (P10520 whole entry): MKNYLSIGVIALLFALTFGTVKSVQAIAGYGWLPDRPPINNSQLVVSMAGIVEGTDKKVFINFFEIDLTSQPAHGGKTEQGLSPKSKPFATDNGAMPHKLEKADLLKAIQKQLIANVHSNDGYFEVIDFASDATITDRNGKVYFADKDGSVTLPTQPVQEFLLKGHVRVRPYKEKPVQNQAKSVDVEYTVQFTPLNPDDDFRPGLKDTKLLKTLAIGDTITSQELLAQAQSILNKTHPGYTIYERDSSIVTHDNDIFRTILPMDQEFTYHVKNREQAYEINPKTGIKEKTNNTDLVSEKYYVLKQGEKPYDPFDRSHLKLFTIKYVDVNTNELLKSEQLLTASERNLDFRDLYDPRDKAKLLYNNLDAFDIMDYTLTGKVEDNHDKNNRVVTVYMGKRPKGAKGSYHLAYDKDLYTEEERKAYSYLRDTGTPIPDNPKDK
Kind of experiment: viability-normalized secreted streptokinase activity reduction – plasminogen activation absorbance, OD405, dose response (AID 1914).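 Further: secreted streptokinase activity via plasminogen activation per viability signal from cell pellet.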 The experiment is classed as functional, Streptococcus pyogenes M1 GAS.

Experiment [22] deals with Streptococcus. The experiment in a line: GAS UMAA2166 growth inhibition – luminescence, BacTiterGlo, counter-screen for streptokinase expression inhibitor project, dose response (AID 1915).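 Further: potency for reduction of bacterial viability or growth.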 The experiment is classed as functional, organism-based. Particulars: Streptococcus.

SMILES strings stand for the structures. Active and inactive are the calls of the source. For most assays here, no stated cut-off is given here; in the data, actives have a measured EC50 and inactives only a lower limit.
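Wherever AC50 is given: cells exposed to compound for roughly 70 hours or longer before luminescence read.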

Sequence of Luciferin 4-monooxygenase (P08659 whole entry): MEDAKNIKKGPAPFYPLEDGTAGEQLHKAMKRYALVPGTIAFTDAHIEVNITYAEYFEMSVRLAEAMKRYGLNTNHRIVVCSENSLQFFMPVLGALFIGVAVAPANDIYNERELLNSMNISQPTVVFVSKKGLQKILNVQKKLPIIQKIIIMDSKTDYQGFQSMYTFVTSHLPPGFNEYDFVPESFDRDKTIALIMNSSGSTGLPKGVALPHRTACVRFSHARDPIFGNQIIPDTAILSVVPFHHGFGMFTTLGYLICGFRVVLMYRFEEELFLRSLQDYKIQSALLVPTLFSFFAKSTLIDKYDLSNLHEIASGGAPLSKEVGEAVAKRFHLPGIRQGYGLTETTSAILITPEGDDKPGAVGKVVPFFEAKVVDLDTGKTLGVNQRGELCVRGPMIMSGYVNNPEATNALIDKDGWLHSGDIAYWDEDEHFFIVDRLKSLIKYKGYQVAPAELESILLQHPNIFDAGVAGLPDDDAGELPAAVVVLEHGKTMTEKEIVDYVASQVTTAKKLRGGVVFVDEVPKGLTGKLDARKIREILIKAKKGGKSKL

As to `CC(NC(=O)CCc1nnc(-c2ccc(-c3ccccc3)cc2)o1)c1nccs1` (configuration not stated), the EC50 in experiment [1] is 10 µM (active).

With `CC(C)n1c(SCC(=O)N2c3ccccc3Sc3ccccc32)nc2c1c(=O)n(C)c(=O)n2C`, the EC50 was 13.3 µM (active) in experiment [2], 13.6 µM (active) in [1] and 22.2 µM (active) in experiment [3].

Turning to `CCOc1ccc(C(=O)c2cc([N+](=O)[O-])ccc2Cl)cc1`, the EC50 in experiment [4], in experiment [5], in [6] and in experiment [7] was > 150 µM (not active) throughout.

`NNC(=O)c1nn(-c2ccccc2)cc1O`: the EC50 in [2], in [1] and in experiment [3] was > 120 µM (not active) throughout.

As for `Cc1cc2ncc(S(C)(=O)=O)c(N)n2n1`, the EC50 in [2], in experiment [1] and in experiment [3] was > 120 µM (not active) each time.

For `COc1ccccc1CNC(=O)COc1cc2c(c3oc(=O)cc(C)c13)CCC(C)(C)O2`, the figures for the EC50 in experiment [2], in [1] and in experiment [3] were 16 µM (active), > 120 µM (not active) and > 120 µM (not active), respectively.

In the case of `COc1ccc(OC)c(S(=O)(=O)N2CCN(C(=O)c3cc(C4CC4)nn3-c3ccccc3)CC2)c1`, the IC50 in experiment [8] and in [9] was > 66 µM (inactive) each time.

Consider `COC(=O)C1=C(Nc2ccc(C)cc2)C=C(C)C(C(=O)OC)C1c1ccc(OC)cc1` (configuration not stated), for which the EC50 in experiment [2] was > 120 µM (not active); in experiment [1], 15.5 µM (active); in [3], 11 µM (active).

`Cc1ccc(NC(S)=Nc2cccc3cnccc23)cc1C`: the AC50 in experiment [10] was 62.1 µM (active).

Regarding `CCOc1cc(C2C3=C(O)CCCC3=NC3=C2C(=O)CCC3)ccc1OCCO` (configuration not stated), the IC50 in experiment [8] and in experiment [9] was > 66 µM (inactive) throughout.

In the case of `O=Nc1c(O)n(Cc2c(Cl)cccc2Cl)c2ccccc12`, the EC50 in experiment [11] was > 112 µM (not active); in experiment [12], > 112 µM (not active); in experiment [13] it was 4.67 µM (active).

As for `O=C(CSc1ncn(-c2ccccc2)n1)c1cccs1`, the EC50 in experiment [14] is 255 nM (active); in [15] it was 25.5 µM (active); in experiment [16], > 120 µM (not active). The IC50 in [8] and in experiment [9] was > 66 µM (inactive) in each case.

Regarding `CCc1ccc(CNC(=O)C2CCN(c3nnc(C)c4c(C)n(-c5ccc(C)cc5)nc34)CC2)cc1`, the AC50 in [10] was 3.85 µM (active).

As to `CCNS(=O)(=O)c1ccc(NC(=O)Nc2cccc(C(F)(F)F)c2)cc1`, the EC50 is 3.63 µM (active) in experiment [17] and > 60 µM (not active) in [18]. Also, in experiment [10], the AC50 is 7.58 µM (active).

In the case of `Cn1cccc1/C=C1\SC(=S)N(Nc2ccccc2)C1=O`, the EC50 in experiment [17] was 2.67 µM (active); in experiment [18], 3.85 µM (active). The AC50 in [10] is 0.978 µM (active).

As to `COc1ccc(CC(=O)NCc2ccc(-n3cccc3)cc2)cc1OC`, the EC50 in experiment [2] was > 120 µM (not active); in experiment [1] it was 9.97 µM (active); in experiment [3], 6.37 µM (active).

In the case of `CCOc1cc(S(=O)(=O)n2cc(-c3ccc(F)cc3)c(N)n2)cc(OCC)c1OCC`, the EC50 in experiment [2] is 15.8 µM (active); in [1] it was > 120 µM (not active); in experiment [3] it was > 120 µM (not active).

For `Fc1ccc(-[n+]2nc(Nc3ccccc3)sc2-c2cccc(Cl)c2Cl)cc1`, the IC50 in [8] and in [9] was > 66 µM (inactive) each time.

`Cc1ccc(O)c(NC(=S)NC(=O)/C=C/c2ccccc2)c1`: the IC50 in [8] and in [9] was > 66 µM (inactive) throughout.

Turning to `N#CC1=C(N)N=C(SCc2cccc3ccccc23)C(C(N)=O)C12CCCCC2` (configuration not stated), the IC50 in [8] and in [9] was > 66 µM (inactive) each time.

`CC1CCC2C(=O)N(c3ccc(NC4CCCCC4)c([N+](=O)[O-])c3)C(=O)C2C1` (configuration not stated): in experiment [10], the concentration at half-maximal activity (AC50) is < 0.16 µM (active).

With `COc1ccc(/C=C/C(=O)NC(=S)Nc2ccc(S(=O)(=O)Nc3nccnc3OC)cc2)cc1`, the IC50 in [8] and in [9] was > 66 µM (inactive) throughout.

`O=C(CSC1=NCCS1)Nc1ccccc1F`: the IC50 in experiment [8] and in experiment [9] was > 66 µM (inactive) each time.

On to `CC(=O)Oc1ccc(-c2csc(Nc3ccc(Cl)cn3)n2)cc1`, for which the AC50 in experiment [10] was 5.14 µM (active).

For `CC(C)C(NC(=O)c1ccccc1)C(=O)NC1=NCCS1` (configuration not stated), the IC50 in [8] and in experiment [9] was > 66 µM (inactive) each time.

Turning to `Cc1cc(C(=O)N/N=C/c2cc(Br)ccc2OC(=O)c2ccccc2Cl)[nH]n1`, the EC50 in [2] was 13.4 µM (active); in [1] it was 18.8 µM (active); in experiment [3], > 120 µM (not active). The IC50 in [19] is > 79 µM (inactive).

In the case of `CNC(=S)N/N=C/c1cn(Cc2ccc(C)cc2)c2ccccc12`, the EC50 in experiment [20] was 5.29 µM (active); in experiment [21] it was 74.1 µM (active); in [22] it was 28 µM (active). Moreover, in experiment [10], the AC50 is 3.07 µM (active).

`N#C/C(=C\c1cccnc1)c1nc2ccccc2[nH]1`: the EC50 in [4] was 23.5 µM (active); in experiment [5] it was > 150 µM (not active); in experiment [6] it was > 75 µM (not active); in experiment [7], 38 µM (active).
